Common to all, as to test: competitive isoTOP-ABPP
What all share (format): binding

The target in assay [1] is T1, GOLGB1 Golgin subfamily B member 1 (Homo sapiens, UniProt Q14789).
T1 construct: isoTOP-ABPP experiments performed in cell lysates (in vitro); endogenous in cells; host or cells: soluble proteome of human cancer cell lines (MDA-MB-231, Ramos, Jurkat)
The following applies: 50 uM, 231 sol, in vitro; for R value (DMSO/fragment) for probe 1 labeling: Q14789_K103. Put shortly: (§1)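 Competition format: fragment (50 μM activated ester, 100 μM guanidinylating agent) versus vehicle in lysate, then lysine probe STP-alkyne at 0.1 mM for 1 h. Quantitation by light/heavy TEV-tag MS1 peak areas, reported as R.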

Assay [2] addresses T2, UCHL5 Ubiquitin carboxyl-terminal hydrolase isozyme L5 (Homo sapiens, UniProt Q9Y5K5).
T2 construct: endogenous in cells; host or cells: MDA-MB-231 (soluble fraction of lysate)
T2 sequence (Q9Y5K5 1-329): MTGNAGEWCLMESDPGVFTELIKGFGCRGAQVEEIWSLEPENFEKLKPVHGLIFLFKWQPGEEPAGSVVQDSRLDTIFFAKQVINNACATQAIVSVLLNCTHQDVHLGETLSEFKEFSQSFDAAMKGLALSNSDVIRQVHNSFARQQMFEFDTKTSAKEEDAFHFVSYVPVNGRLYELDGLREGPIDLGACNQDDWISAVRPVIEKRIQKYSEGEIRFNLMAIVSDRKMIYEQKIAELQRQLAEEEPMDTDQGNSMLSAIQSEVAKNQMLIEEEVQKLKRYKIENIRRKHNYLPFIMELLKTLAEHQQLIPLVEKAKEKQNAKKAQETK
The conditions noted are these: 50 uM, 231 sol, in vitro; for R value (DMSO/fragment) for probe 1 labeling: Q9Y5K5_K323. Put shortly:
as §1

The target of assay [3] is T3, RQCD1 Cell differentiation protein RCD1 homolog (Homo sapiens, UniProt Q92600).
T3 construct: isoTOP-ABPP experiments performed in cell lysates (in vitro); endogenous in cells; host or cells: soluble proteome of human cancer cell lines (MDA-MB-231; Ramos and Jurkat also prepared)
T3 sequence (Q92600 whole entry): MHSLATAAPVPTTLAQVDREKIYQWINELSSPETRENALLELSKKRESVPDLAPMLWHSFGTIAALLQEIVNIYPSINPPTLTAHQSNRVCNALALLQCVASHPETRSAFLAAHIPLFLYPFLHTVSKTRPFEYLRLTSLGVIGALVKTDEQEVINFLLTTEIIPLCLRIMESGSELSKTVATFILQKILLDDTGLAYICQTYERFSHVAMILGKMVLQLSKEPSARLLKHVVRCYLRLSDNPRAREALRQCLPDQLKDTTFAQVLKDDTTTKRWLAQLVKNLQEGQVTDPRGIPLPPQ
The conditions noted are these: Q92600_K230; 50 uM, 231 sol, in vitro. In outline: as §1

Assay [4] addresses T4, TRAP1 Heat shock protein 75 kDa, mitochondrial (Homo sapiens, UniProt Q12931).
T4 construct: isoTOP-ABPP experiments performed in cell lysates (in vitro); endogenous in cells; host or cells: soluble proteome of human cancer cell lines (MDA-MB-231, Ramos, Jurkat)
T4 sequence (Q12931 60-704): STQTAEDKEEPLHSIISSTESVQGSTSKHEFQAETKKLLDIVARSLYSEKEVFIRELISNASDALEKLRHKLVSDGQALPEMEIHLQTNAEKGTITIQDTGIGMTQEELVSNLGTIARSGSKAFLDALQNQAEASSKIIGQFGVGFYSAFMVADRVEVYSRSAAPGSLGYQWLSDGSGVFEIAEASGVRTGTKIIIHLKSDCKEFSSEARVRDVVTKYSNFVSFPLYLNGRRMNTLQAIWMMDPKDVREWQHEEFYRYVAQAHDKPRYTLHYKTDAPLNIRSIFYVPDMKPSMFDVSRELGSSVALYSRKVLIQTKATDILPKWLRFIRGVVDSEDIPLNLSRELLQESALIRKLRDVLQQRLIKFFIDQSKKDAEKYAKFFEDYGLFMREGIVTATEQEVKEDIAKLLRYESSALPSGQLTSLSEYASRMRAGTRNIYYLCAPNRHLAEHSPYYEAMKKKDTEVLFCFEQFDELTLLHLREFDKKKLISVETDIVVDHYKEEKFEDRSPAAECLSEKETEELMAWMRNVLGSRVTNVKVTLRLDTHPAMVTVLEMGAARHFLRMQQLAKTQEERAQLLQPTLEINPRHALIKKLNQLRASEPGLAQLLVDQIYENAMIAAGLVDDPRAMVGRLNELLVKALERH
The following applies: 50 uM, 231 sol, in vitro; for R value (DMSO/fragment) for probe 1 labeling: Q12931_K699. In outline: as §1

Assay [5] deals with T5, MTOR Serine/threonine-protein kinase mTOR (Homo sapiens, UniProt P42345).
T5 construct: isoTOP-ABPP experiments performed in cell lysates (in vitro); endogenous in cells; host or cells: soluble proteome of human cancer cell lines (MDA-MB-231; Ramos and Jurkat also prepared)
The following applies: 50 uM, 231 sol, in vitro; for R value (DMSO/fragment) for probe 1 labeling: P42345_K2066. Put shortly:
as §1

The target in assay [6] is T6, OLA1 Obg-like ATPase 1 (Homo sapiens, UniProt Q9NTK5).
T6 construct: endogenous in cells; host or cells: MDA-MB-231 (soluble fraction of lysate)
The following applies: 50 uM, 231 sol, in vitro; for R value (DMSO/fragment) for probe 1 labeling: Q9NTK5_K248. In outline:
as §1

SMILES strings stand for the structures.

T1 sequence (Q14789 whole entry): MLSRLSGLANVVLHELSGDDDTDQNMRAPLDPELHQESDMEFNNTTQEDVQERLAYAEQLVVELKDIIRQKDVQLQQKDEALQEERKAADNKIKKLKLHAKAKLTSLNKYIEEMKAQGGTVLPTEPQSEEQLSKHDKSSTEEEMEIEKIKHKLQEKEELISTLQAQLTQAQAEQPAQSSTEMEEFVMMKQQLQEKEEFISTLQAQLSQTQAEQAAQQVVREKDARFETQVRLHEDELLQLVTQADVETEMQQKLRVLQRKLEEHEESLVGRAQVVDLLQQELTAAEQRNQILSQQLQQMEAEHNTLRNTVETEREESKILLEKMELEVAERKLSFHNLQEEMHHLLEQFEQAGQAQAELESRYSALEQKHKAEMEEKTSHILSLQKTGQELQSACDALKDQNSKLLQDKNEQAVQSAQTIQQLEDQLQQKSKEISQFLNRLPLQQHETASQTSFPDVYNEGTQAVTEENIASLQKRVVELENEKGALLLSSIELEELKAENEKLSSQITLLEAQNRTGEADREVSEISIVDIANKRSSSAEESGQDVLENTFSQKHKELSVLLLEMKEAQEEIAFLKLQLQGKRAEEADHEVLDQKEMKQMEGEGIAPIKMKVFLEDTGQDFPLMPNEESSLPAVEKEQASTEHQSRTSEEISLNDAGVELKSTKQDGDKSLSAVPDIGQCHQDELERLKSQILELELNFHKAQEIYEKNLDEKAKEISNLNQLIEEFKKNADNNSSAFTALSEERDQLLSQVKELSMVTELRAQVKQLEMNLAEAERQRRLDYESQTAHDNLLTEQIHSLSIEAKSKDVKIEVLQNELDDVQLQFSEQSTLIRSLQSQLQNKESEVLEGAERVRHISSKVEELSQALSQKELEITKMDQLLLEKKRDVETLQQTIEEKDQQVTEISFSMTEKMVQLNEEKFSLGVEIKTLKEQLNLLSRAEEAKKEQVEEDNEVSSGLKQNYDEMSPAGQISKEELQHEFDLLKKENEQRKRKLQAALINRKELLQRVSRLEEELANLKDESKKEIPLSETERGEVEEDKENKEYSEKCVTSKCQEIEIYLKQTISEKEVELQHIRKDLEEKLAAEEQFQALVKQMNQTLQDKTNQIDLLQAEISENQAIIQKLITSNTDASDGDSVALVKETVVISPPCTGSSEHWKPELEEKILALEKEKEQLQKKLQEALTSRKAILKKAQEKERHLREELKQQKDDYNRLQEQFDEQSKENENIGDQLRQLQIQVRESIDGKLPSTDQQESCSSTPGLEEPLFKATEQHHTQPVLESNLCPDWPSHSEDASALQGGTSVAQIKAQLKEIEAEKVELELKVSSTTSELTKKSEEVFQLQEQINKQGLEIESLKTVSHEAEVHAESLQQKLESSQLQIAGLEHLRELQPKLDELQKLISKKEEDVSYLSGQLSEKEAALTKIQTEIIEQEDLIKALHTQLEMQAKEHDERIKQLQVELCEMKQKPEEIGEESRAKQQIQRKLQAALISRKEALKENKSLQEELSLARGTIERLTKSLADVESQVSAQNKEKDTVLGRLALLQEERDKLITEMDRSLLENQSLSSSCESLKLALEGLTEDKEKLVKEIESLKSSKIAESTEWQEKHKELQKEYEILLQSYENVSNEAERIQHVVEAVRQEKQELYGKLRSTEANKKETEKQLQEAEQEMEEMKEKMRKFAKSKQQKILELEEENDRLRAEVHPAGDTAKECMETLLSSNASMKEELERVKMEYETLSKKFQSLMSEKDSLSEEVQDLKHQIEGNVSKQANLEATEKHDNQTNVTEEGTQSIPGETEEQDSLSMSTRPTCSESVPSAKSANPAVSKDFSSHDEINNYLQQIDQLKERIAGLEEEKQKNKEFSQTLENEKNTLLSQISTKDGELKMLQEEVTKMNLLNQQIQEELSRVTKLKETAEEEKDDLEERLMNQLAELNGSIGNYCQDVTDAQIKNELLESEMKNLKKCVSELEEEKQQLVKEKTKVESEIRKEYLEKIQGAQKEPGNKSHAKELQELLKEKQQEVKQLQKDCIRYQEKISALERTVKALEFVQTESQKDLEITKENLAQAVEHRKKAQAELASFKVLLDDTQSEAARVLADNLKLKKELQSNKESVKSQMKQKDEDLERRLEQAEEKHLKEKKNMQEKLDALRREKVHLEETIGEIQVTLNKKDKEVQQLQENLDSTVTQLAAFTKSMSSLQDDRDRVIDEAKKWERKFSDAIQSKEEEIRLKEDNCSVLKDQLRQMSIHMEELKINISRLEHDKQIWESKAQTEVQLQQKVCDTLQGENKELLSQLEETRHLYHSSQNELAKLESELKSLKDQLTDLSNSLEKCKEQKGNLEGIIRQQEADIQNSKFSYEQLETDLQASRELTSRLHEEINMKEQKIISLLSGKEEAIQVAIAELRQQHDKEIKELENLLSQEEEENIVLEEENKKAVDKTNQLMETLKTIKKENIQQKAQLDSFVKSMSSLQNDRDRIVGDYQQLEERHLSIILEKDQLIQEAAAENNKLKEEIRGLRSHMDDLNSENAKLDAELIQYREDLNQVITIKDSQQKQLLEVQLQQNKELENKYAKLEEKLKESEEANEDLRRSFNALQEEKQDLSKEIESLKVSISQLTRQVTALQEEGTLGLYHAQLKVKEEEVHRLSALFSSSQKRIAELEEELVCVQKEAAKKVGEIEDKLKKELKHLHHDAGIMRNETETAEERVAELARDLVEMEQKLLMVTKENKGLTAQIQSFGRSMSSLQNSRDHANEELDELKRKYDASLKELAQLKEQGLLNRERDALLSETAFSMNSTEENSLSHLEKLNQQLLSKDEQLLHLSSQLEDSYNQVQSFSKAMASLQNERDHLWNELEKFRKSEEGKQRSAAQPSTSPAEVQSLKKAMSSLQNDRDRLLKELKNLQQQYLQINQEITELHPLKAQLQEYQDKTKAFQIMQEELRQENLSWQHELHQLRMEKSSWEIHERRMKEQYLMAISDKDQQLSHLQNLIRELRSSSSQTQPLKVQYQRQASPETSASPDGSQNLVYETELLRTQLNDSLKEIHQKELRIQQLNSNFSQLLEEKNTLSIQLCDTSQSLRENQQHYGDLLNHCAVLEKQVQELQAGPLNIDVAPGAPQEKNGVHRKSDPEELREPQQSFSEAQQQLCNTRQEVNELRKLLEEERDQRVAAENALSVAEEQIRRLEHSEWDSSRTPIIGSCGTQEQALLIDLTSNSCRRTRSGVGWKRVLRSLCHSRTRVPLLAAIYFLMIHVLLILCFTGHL

In the case of `O=C(CCc1cn(-c2ccccc2)nc1-c1ccccc1)Oc1c(F)c(F)c(F)c(F)c1F` [fragment 19, Pentafluorophenyl 3-(1,3-diphenyl-1H-pyrazol-4-yl)propanoate], the “R value (DMSO/fragment) for probe 1 labeling” value (from here on “R value (DMSO/fragment)”) in assay [1] is 0.9; in assay [2], 1.1; in assay [3], 1.0; in assay [4] it was 1.2; in assay [5], 0.9; in assay [6], 1.0.
On to `O=C(Oc1c(F)c(F)c(F)c(F)c1F)C(c1ccccc1)c1ccccc1` [fragment 20, Pentafluorophenyl 2,2-diphenylacetate], for which the “R value (DMSO/fragment)” value in assay [1] worked out at 1.0; in assay [2] it was 0.9; in assay [3] it was 0.9; in assay [4], 1.0; in assay [5] it was 1.0; in assay [6], 0.9.
For `O=C(Oc1c(F)c(F)c(F)c(F)c1F)c1cc(C(F)(F)F)cc(C(F)(F)F)c1` [fragment 21, Pentafluorophenyl 3,5-bis(trifluoromethyl)benzoate], the “R value (DMSO/fragment)” value worked out at 1.0 in assay [1]; 1.0 in assay [2]; 0.9 in assay [3]; 0.9 in assay [4]; 0.7 in assay [5]; 1.0 in assay [6].
In the case of `Cn1cc(CC(=O)Oc2c(F)c(F)c(F)c(F)c2F)c2ccccc21` [fragment 22, Pentafluorophenyl 2-(1-methyl-1H-indol-3-yl)acetate], the “R value (DMSO/fragment)” value came to 1.0 in assay [1]; 0.8 in assay [2]; 1.0 in assay [3]; 1.1 in assay [4]; 2.8 in assay [5]; 1.0 in assay [6].
With `COc1cc(CCC(=O)Oc2c(F)c(F)c(F)c(F)c2F)cc(OC)c1OC` [fragment 23, Pentafluorophenyl 3-(3,4,5-trimethoxyphenyl)propanoate], the “R value (DMSO/fragment)” value in assay [1] came out at 1.0; in assay [3] it was 1.1; in assay [4], 1.0; in assay [5] it was 1.1; in assay [6] it was 1.0.
In the case of `O=C(Oc1c(F)c(F)c(F)c(F)c1F)C1CCN(C(=O)OCc2ccccc2)CC1` [fragment 24, 1-Benzyl 4-(pentafluorophenyl) piperidine-1,4-dicarboxylate], in assay [1], the “isoTOP-ABPP reactivity ratio at lysine Q14789_K103” value is reported as 1.0. In addition, the “isoTOP-ABPP reactivity ratio at lysine Q9Y5K5_K323” value in assay [2] was determined as 0.8. Besides, in assay [4], the “isoTOP-ABPP reactivity ratio at lysine Q12931_K699” value is 0.9. Also, the “isoTOP-ABPP reactivity ratio at lysine P42345_K2066” value in assay [5] came to 1.0. In addition, in assay [6], the “isoTOP-ABPP reactivity ratio at lysine Q9NTK5_K248” value is 1.1.
As to `O=C(Oc1c(F)c(F)c(F)c(F)c1F)c1ccc2ccccc2n1` [fragment 25, Pentafluorophenyl quinoline-2-carboxylate], the “isoTOP-ABPP reactivity ratio at lysine Q14789_K103” value in assay [1] was 1.0. Further, the “isoTOP-ABPP reactivity ratio at lysine Q12931_K699” value in assay [4] stood at 0.9. Further, in assay [6], the “isoTOP-ABPP reactivity ratio at lysine Q9NTK5_K248” value was 1.0.

The values are drawn from patent publication US20210255193A1, “LYSINE REACTIVE PROBES AND USES THEREOF” (The Scripps Research Institute, priority 2017, published 2021).
